Experimental data published in patent publication US6953783B1, “Modulation of gene expression by combination therapy” (MethylGene, Inc., priority 1998, dated 2005).
d = 2'-deoxy (DNA); m = 2'-O-methyl

Legend:
p16 tumor suppressor = assay: Reactivation of p16 expression in T24 cells, oligonucleotide and/or 5-aza-dC (IP/Western, densitometry); type: cell-based, human; conditions: densitometry of FIG. 14 Western, 40 nM oligonucleotide and/or 0.1 μM 5-aza-dC
Method: For this purpose, one day before transfection, T24 cells (ATCC No. HTB-4) were plated onto 10 cm plates at 4×10^5 cells/dish. At the time of transfection, cells were washed with phosphate buffered saline (PBS) and 5 ml of optimem media (Gibco-BRL) containing 6.25 μl/ml lipofectin transfection reagent (Gibco-BRL) was added. […] These oligonucleotides were chemically modified as follows: A equals 2'-deoxyriboadenosine; C equals 2'-deoxyribocytidine; G equals 2'-deoxyriboguanosine; T equals 2'-deoxyribothymidine; Aequals riboadenosine; U equals uridine; C equals ribocytidine; and G equals riboguanosine. The underlined bases were 2'-methoxyribose substituted nucleotides. Non-underlined bases indicate deoxyribose nucleosides. The backbone of each oligonucleotide consisted of a phosphorothioate linkage between adjoining nucleotides. The oligonucleotides were diluted to the desired concentration from a 0.1 mM stock solution in the transfection media. After a four-hour incubation at 37° C. in a 5% CO2 incubator, the plates were washed with PBS and 10 ml of fresh cell culture media was added. Following an additional two-hour incubation at 37° C., freshly prepared 5-aza-2'-deoxycytidine was added to the tissue culture medium. Cells were transfected for a total of three days and split every other day to ensure optimal transfection conditions. At the indicated time points, cells were harvested by trypsinization and pelleted by centrifugation at 1100 rpm and 4° C. for five minutes. The cell pellet was resuspended in PBS and counted on a Coulter Particle Counter to determine the total cell number. Following a second centrifugation, the PBS was aspirated from the cell pellet and the pellet was frozen at 70° C. […] The lysed cells were incubated on ice for 10 minutes and cell particulate matter was removed by centrifugation at 10,000 rpm for 10 minutes at 4° C. The protein concentration for each sample was determined using the Bio Rad Protein Assay and 600 μg of protein was used for each immunoprecipitation. […]

p21^WAF1 = p21^WAF1 protein levels by Western blotting in T24 cells; type: cell-based, human; conditions: for p21^WAF1 protein level: 40 nM or 75 nM, 24 or 48 hours
Method: Another member of the cyclin-dependent kinase inhibitor (CDKI) family, p21^WAF1, inhibits a wide range of cyclin/CDK complexes involved in G1 and S phase progression (Tam et al. (1994) Cancer Res. 54: 5816-5820; Baghdassarian and French (1996) Hematol. Cell Ther. 88: 313-323; Gotz et al. (1996) Oncogene 13: 391-398). […] To do this, DNA MeTase, p21^WAF1, and α-actin protein levels were measured by Western blotting analysis in T24 cells that had been treated for either 24 hours (i.e., one 4 hour transfection time) or 48 hours (i.e., two […] transfections 24 hours apart) with either 40 nM or 75 nM of either MG88 or MG208.
T24 cells were also treated for 24 hours (i.e., four hour transfection) with lipofectin only, or lipofectin plus 20, 40, or 80 nM of MG88 or MG208. After treatment, cell lysates were prepared and analyzed by Western blotting analysis with α-actin-specific antibody or p21-specific antibody.

p16^ink4A protein = p16^ink4A protein by immunoprecipitation and Western blotting in T24 cells; type: cell-based, human; conditions: for induction of expression of p16^ink4A protein: 40 nM or 75 nM, 4 h each day up to 10 days
Description: The cyclin-dependent kinase inhibitor (CDKI) p16^ink4A regulates the transition from G1 to S-phases of the cell cycle (Serrano et al. (1993) Nature 366: 704-707). Inactivation of p16^ink4A is one of the most frequently observed abnormalities in human cancer (Serrano et al., supra). Transcriptional inactivation and associated hypermethylation of the p16^ink4A promote region have also been observed in virtually all types of cancer (Gonzales-Zulueta et al. (1995) Cancer Res. 55: 4531-4535; Merlo et al. (1995) Nat. Med. 7: 686-692; Costello et al. (1996) Cancer Res. 56: 2405-2410; Lo et al., Cancer Res. 56: 2721-2725). To investigate the effect of specifically reducing cellular DNA MeTase levels on the expression and methylation status of a silenced p16^ink4A gene, T24 human bladder cancer cells that contain a hypermethylated and silenced p16^ink4A gene were transfected with 40 nM or 75 nM MG88 or control oligonucleotide MG208 with 6.25 μg/ml lipofectin for four hours each day for up to 10 consecutive days. On days 3, 5, 8, and 10, p16^ink4A protein levels were then analyzed by immunoprecipitation followed by Western blotting analysis with a p16^ink4A protein-specific antibody (PharMingen). HeLa cells were used as a positive (+) control for p16^ink4A protein expression.
(§1) Next, to determine whether de novo methylation and silencing of the re-expressed p16^ink4A gene occurred when DNA MeTase returned to normal levels, T24 cells were transfected for 10 consecutive days with either 40 or 75 nM or MG88 or MG208. […] Cell lysates of the T24 cells transfected for ten days were analyzed by Western blotting analysis for expression of DNA MeTase protein,p16^ink4A protein, and actin protein (as a control for equal loading) 3, 5, and 7 days after MG88 transfection.

DNA MeTase protein [1] = assay: DNA MeTase protein levels by Western blotting in A549 cells; type: cell-based, human; conditions: 20, 40 or 80 nM with lipofectin, 4 h on day 0 and day 1, harvest day 2
Description: (§2) MG88 was next tested for an ability to inhibit DNA MeTase mRNA in two human neoplastic cells, A549 (human non-small cell lung carcinoma cells) and T24 (human bladder cancer cells). […] MG208 was modified as follows: A equals 2′-deoxyriboadenosine; C equals 2′-deoxyribocytidine; G equals 2′-deoxyriboguanosine; T equals 2′-deoxyribothymidine; A equals riboadenosine; U equals uridine; C equals ribocytidine; and G equals riboguanosine. The underlined bases were 2′-methoxyribose substituted nucleotides. Non-underlined bases indicate deoxyribose nucleosides. The backbone of MG208 consisted of a phosphorothioate linkage between adjoining nucleotides.
The MG88 and MG208 oligonucleotides were diluted to the desired concentration from a 0.1 mM stock solution in the transfection media. Cells were exposed to oligonucleotide plus lipofectin (or lipofectin only) for four hours on day 0 and four hours on day 1 (after each four hour treatment, cells were returned to complete media). On day 2 (i.e., 48 hours after the first treatment on day 0), cells were harvested, whole cell lysates were prepared, and DNA MeTase protein levels were analyzed by Western blotting analysis with a DNA MeTase-specific rabbit polyclonal antibody (generated according to standard techniques of a glutathione S -transferase fusion protein containing the first 10 kDa amino terminus from DNA methyltransferase protein). […]

T24 cells = assay: T24 cell proliferation during and after treatment (cell counting); type: cell-based, human; conditions: for cell proliferation during treatment: days 0-5, relative to lipofectin
Description: To study the effect of specific inhibition of DNA MeTase on cell growth, cellular proliferation rates were monitored both during the treatment and post treatment periods to determine the duration of the effect. […] During and following treatment, cells were counted. […] To determine whether the transient re-expression of p16^ink4A and growth-inhibitory effects induced by short term treatment with MG88 were due to the expansion of a less affected (less demethylated) population of cells within the treated population, or to rapid inactivation of p16^ink4A after MG88 withdrawal, single cell clones were isolated after treatment. Several MG88 clones were, in fact, p16^ink4A negative, confirming that the MG88 treatment produced a mixed population of p16^ink4A positive and negative cells.

p16^ink4A promoter = assay: Methylation specific PCR and bisulfite genomic sequencing of the p16^ink4A promoter in T24 cells; type: cell-based, human; conditions: for demethylation of the p16^ink4A promoter region (MSP): treated 3, 5, 9 or 10 days
Method: To identify changes in the methylation status of the p16^ink4A promoter induced by MG88 treatment, methylation specific PCR (MSP) and bisulfite genomic sequencing was performed as previously described ([…] et al. (1994) Nat. Gen. 8: 27-32; Frommer et al. (1991) Proc. Nat. Acad. Sci. USA 89: […]). […] Briefly, the Oncor p16 detection system was used (commercially available from Oncor, Gaithersburg, Md.). PCR was performed in a total volume of 25 μl under the following conditions: 100 ng bisulfate-treated DNA (Oncor),10 mM Tris-HCl, pH 8.3, […], 1.5 mM MgCl2, 250 μM dNTPs, 80 ng of each of the following primers ([NT] sense (SEQ ID NO: 79) and [NT] antisense (SEQ ID NO: 80)) and 1 unit of AmpliTaq Gold (Perkin-Elmer). The denaturation cycle was 95° C. for 12 min followed by 35 cycles at 95° C. for 45 seconds, 60° C. for 45 seconds, and 72° C. for 60 seconds, and an elongation cycle of 72° C. for 10 minutes. the PCR product (5 μl) was analyzed on a 2% agarose gel. The unmethylated (U) and demethylated (D) primers (commercially available from Oncor) were used at the same conditions as the specific primers.

DNA MeTase protein [2] = assay: DNA MeTase protein levels by Western blotting in T24 cells; type: cell-based, human; conditions: for reduction in DNA MeTase protein levels: 20, 40 or 80 nM with lipofectin, 4 h on day 0 and day 1, harvest day 2
Description: as §2
The MG88 and MG208 oligonucleotides were diluted to the desired concentration from a 0.1 mM stock solution in the transfection media. Cells were exposed to oligonucleotide plus lipofectin (or lipofectin only) for four hours on day 0 and four hours on day 1 (after each four hour treatment, cells were returned to complete media). On day 2 (i.e., 48 hours after the first treatment on day 0), cells were harvested, whole cell lysates were prepared, and DNA MeTase protein levels were analyzed by Western blotting analysis with a DNA MeTase-specific rabbit polyclonal antibody (generated according to standard techniques of a glutathione S -transferase fusion protein containing the first 10 kDa amino terminus from DNA methyltransferase protein). […] Equal loading of all lanes was confirmed by blotting for α-actin protein levels with an actin-specific rabbit polyclonal antibody (commercially available from Santa Cruz Biotech., Santa Cruz, Calif.).
as §1

[3] = mammals; cited from earlier work
thymidylate synthase = conditions: T24 cells; 25 or 50 nM, 72 hours
Description: After treatment, the cells were lysed and analyzed by Western blotting analysis for thymidylate synthase protein levels using a thymidylase synthase specific antibody (commercially available from Chemicon Int., Temecula, Calif.).

human DNA MeTase mRNA = assay: Antisense inhibition of DNA MeTase mRNA (screen of phosphorothioate oligonucleotides); type: cell-based
Description: As shown in FIG. 1 the two […] regions were identified to be highly sensitive to antisense inhibition were targeted by MG88 having the sequence [NT] ID NO:1) (this oligonucleotide is targeted to the […] 5'UTR at nucleotides 532 to 513) and MG98 having the sequence [NT] ID NO:2) (this oligonucleotide is targeted to the […] 3'UTR at nucleotides 5218 to 5199). These oligonucleotides were chemically modified as follows: A equals 2'-deoxyriboadenosine; C equals 2'-deoxyribocytidine; G equals 2'-deoxyriboguanosine; T equals 2'-deoxyribothymidine; A equals riboadenosine; U equals uridine; C equals ribocytidine; and G equals riboguanosine. The underlined bases were 2'-methoxyribose substituted nucleotides. Non-underlined bases indicate deoxyribose nucleosides. The backbone of each oligonucleotide consisted of a phosphorothioate linkage between adjoining nucleotides.

[4] = tested on: Colo 205 human colon cancer cells; assay: Colo 205 tumor growth in nude mice; type: in vivo, BALB/c nude mice; conditions: i.v. daily for seven days; 0.5 mg/kg MG98 and/or 0.1 mg/kg 5-aza-dC
Method: Eight to ten week old female BALB/c nude mice (Taconic Labs, Great Barrington, N.Y.) were injected subcutaneously in the flank area with 2×10^6 preconditioned Colo 205 human colon cancer cells (ATCC No. CCL-222). Preconditioning of these cells was done by a minimum of three consecutive tumor transplantations in the same strain of nude mice. Subsequently, tumor fragments of approximately 30 mgs were excised and implanted subcutaneously in mice, in the left flank area under Forene anesthesia (Abbott Labs., Geneva, Switzerland). […] Tumor volume was calculated according to standard methods every second day post infusion (see methods, e.g., in Meyer et al. (1989) Int. J. Cancer 43: 851-856).

pRb = assay: Western blotting for phosphorylated pRb in T24 cells; type: cell-based, human; conditions: T24 cells reactivated to express p16^ink4A after transfection
p21^WAF1 mRNA = assay: RNase protection assay for p21 mRNA in T24 cells; type: cell-based, human; conditions: 40 nM, 24 or 48 hours
Method: Next, to determine if p21^WAF1 was induced at the transcriptional level, RNase protection assay were performed on cells treated with 40 nM of either MG88 or MG208 for either 24 or 48 hours. Total cellular RNA was isolated from the cells and analysed for p21 mRNA, p27 mRNA, and p18 mRNA using the human cell cycle-2 (hcc-2) multiprobe RNase protection kit commercially available from PharMingen, San Diego, Calif.). RNA loading was determined to be equal using the signals from two housekeeping genes, L32 and GAPDH.

[5] = after 10 day treatment with 40 nM

5′-UUAATG TAA CCT AAG GUCAA-3′ (DNA UUAATGTAACCTAAGGUCAA; sugars from the 5' end m4 d12 m4, all phosphorothioate, methylation of C not given here) [MG207, negative control oligonucleotide]
p16 expression, Percentage of HeLa Cell Control (p16 tumor suppressor): 1

5′-AACGAT CAG GAC CCT TGUCC-3′ (DNA AACGATCAGGACCCTTGUCC; sugars from the 5' end m4 d12 m4, all phosphorothioate, methylation of C not given here) [MG208, mismatch control oligonucleotide, reference compound]
p21^WAF1 protein level (p21^WAF1): neither lipofectin nor MG208 had an effect | induction of expression of p16^ink4A protein (p16^ink4A protein): not detected | reduction in DNA MeTase protein levels (DNA MeTase protein [1]): not | cell proliferation during treatment (T24 cells; 75 nM): only minimal growth inhibition | p16^ink4A methylation status (bisulfite sequencing) (p16^ink4A promoter; T24 cells, days 3 and 5 of treatment): no effect on p16^ink4A methylation status | demethylation of the p16^ink4A promoter region (MSP) (p16^ink4A promoter; T24 cells): no effect on methylation of the p16^ink4A gene | reduction in DNA MeTase protein levels (DNA MeTase protein [2]): not

Nc1ncn([C@@H]2O[C@H](CO)[C@@H](O)[C@H]2O)c(=O)n1 [5-azaC, 5-aza-cytidine]
toxicity of threshold concentrations necessary to inhibit DNA methyltransferase activity [3]: toxic to mammals

5′ GUCUTAAGCTCAACATUCUA 3′ [MG2606, reference compound]
thymidylate synthase protein level compared to lipofectin only (thymidylate synthase): not

5′-UUCATG TCA GCC AAG GCC AC-3′ [MG98]
IC50 (human DNA MeTase mRNA): 45 nM | tumor volume [4]: showed tumor volume increase | p16 expression, Percentage of HeLa Cell Control (p16 tumor suppressor): 4

Nc1ncn([C@H]2C[C@H](O)[C@@H](CO)O2)c(=O)n1 [5-aza-dC, 5-aza-2′-deoxycytidine]
tumor volume [4]: showed less tumor volume increase | toxicity of threshold concentrations necessary to inhibit DNA methyltransferase activity [3]: toxic to mammals | p16 expression, Percentage of HeLa Cell Control (p16 tumor suppressor): 11

5′-AAGCAT GAG CAC CGT TCUCC-3′ [MG88]
p21^WAF1 protein level (p21^WAF1): increased directly with the reduction in DNA MeTase | p21^WAF1 protein induction, dose response (p21^WAF1; 20, 40 or 80 nM, 24 hours): induced p21^WAF1 in a dose dependent fashion | induction of expression of p16^ink4A protein (p16^ink4A protein): detected after 5 days of treatment | p16^ink4A protein level post-treatment (p16^ink4A protein; [5]): barely detectable at day 7 post-treatment | phosphorylated forms of pRb (pRb): decrease in the amount of phosphorylated forms of pRb | p21^WAF1 mRNA (p21^WAF1 mRNA): no increase in p21^WAF1 mRNA | reduction in DNA MeTase protein levels (DNA MeTase protein [1]): dose-dependent reduction in DNA MeTase protein levels | IC50 (human DNA MeTase mRNA): 40 nM | antiproliferative and cell death effect (T24 cells; 75 nM, 10 consecutive days): significant antiproliferative and cell death inducing effect | cell proliferation during treatment (T24 cells; 75 nM): dramatically inhibited cell proliferation | persistence of inhibition of cell proliferation (T24 cells; after 5 day treatment with 75 nM): approximately one week post-treatment | demethylated CpG sites of p16^ink4A promoter (bisulfite sequencing) (p16^ink4A promoter; T24 cells, day 5 of treatment, 15 sites in all): 15 CpG sites | re-methylated sites of p16^ink4A promoter (p16^ink4A promoter; T24 cells, three days after cessation of treatment): 13 of 15 | demethylation of the p16^ink4A promoter region (MSP) (p16^ink4A promoter; T24 cells): occurred as early as day 3 of MG88 treatment | methylation of p16^ink4A promoter in positive clone C4-5 (p16^ink4A promoter; thirty days after a five day treatment (75 nM)): completely non methylated at all CpG sites evaluated | reduction in DNA MeTase protein levels (DNA MeTase protein [2]): dose-dependent reduction in DNA MeTase protein levels | return of DNA MeTase protein to control levels post-treatment (DNA MeTase protein [2]; [5]): 5 to 7 days

5′ UUCATAACCTCAGCATUGUC 3′ [MG2605]
thymidylate synthase protein level compared to lipofectin only (thymidylate synthase): diminished levels of thymidylate synthase protein
